Experimental data taken from patent US20240252673A1, “ANTI-TISSUE FACTOR ANTIBODY-DRUG CONJUGATES AND THEIR USE IN THE TREATMENT OF CANCER” (priority 2017, published 2024).
Where a SMILES comes first, the peptide text is derived from it. [ ]: non-standard residue; d: D form. The star is where a group is joined. Dolaproine = CO[C@@H]([C@@H]1CCCN1)[C@@H](C)C(=O)O; Dil = CC[C@H](C)[C@H](NC)[C@@H](CC(=O)O)OC; X1 = C[C@@H](N*)[C@@H](O)c1ccccc1; NMeV = CN[C@H](C(=O)O)C(C)C

Test: Phase I/II dose-escalation study: plasma pharmacokinetics
Format: in vivo, human
Conditions: after tisotumab vedotin, cycle 1 and cycle 2, all dose cohorts (FIG. 4)
Description: A first-in-human phase I/II dose-escalating study following a 3+3 dose-escalation design was conducted in order to test the safety of tisotumab vedotin in 27 subjects with locally advanced and/or metastatic cancer of various types including cervical cancer (FIG. 2). Tisotumab vedotin was administered by intravenous infusion at doses ranging from 0.3 mg/kg to 2.2 mg/kg on day 1 of a 21-day cycle for four cycles (i.e., each treatment cycle was 3 weeks). Patients with stable disease (SD) or better at the end of four cycles had the option to continue treatment with tisotumab vedotin for eight additional cycles (FIG. 2). Tumor evaluations were performed by CT scans every six weeks. In order to qualify for SD, results of the CT scan scheduled for week six needed to be SD or better. Two CT scans were performed outside the per-protocol defined window.
A primary objective of the study was to assess the safety and tolerability in a mixed population of patients with specified solid tumors. Adverse event (AE) severity was graded according to Common Terminology Criteria for Adverse Events (CTCAE) version 4.03. Secondary objectives of the study included determining the pharmacokinetic (PK) profile of tisotumab vedotin and preliminary evaluation of anti-tumor activity as assessed according to Response Evaluation Criteria in Solid Tumors [RECIST] version 1.1. Dose-limiting toxicities (DLTs) were determined during the first cycle and were defined as grade≥3 events possibly related to tisotumab vedotin. […] Tumor biopsies were required at baseline for TF expression which was assessed by immunohistochemistry utilizing tisotumab. TF staining intensity was determined using the H-scoring system.
The geometric means (% CV) of the time to reach Cmax (Tmax)(hr), maximum concentration (Cmax)(ng/mL), and area under the concentration time curve (AUC)0-t (hr*ng/mL) was measured for the pharmacokinetics (PK) portion of the study (Table 3). Low levels of unconjugated MMAE were measured in systemic circulation (FIG. 4).

CC[C@H](C)[C@@H]([C@@H](CC(=O)N1CCC[C@H]1[C@H](OC)[C@@H](C)C(=O)N[C@H](C)[C@@H](O)c1ccccc1)OC)N(C)C(=O)[C@@H](NC(=O)[C@@H](NC)C(C)C)C(C)C [MMAE, monomethyl auristatin E] (H-[NMeV]V[Dil][Dolaproine]-X1)
unconjugated MMAE in systemic circulation: Low levels
